We go through six compounds from patent US7262218B2, “Forms of pravastatin sodium” (Teva Gyogyszergyar Zartkoruen Mukodo Reszvenytarsasag, priority 1999, dated 2007).

Data set [1] in a line: Solid-form stability on drying under vacuum (X-ray diffraction). Format: physicochemical. The protocol: Most of these forms have a jelly appearance. By drying these samples at 60° C., vacuum overnight, the powdered Form D is obtained.
Pravastatin sodium (7 g) was dissolved in deionized water (13 ml) and diluted with acetone (14.3 ml). The resulting solution was stirred over charcoal (0.07 g.) to decolorize. The charcoal was removed by filtration and rinsed with a 10:1 mixture of acetone:water (15.7 ml). The combined pravastatin sodium solution and rinsate was then diluted with acetone (42.8 ml) and cooled to −10° C. At the reduced temperature, more acetone (143 ml) was slowly added over one half hour. The solution was then maintained at −10° C. for three hours during which time pravastatin sodium crystallized. The crystals were then isolated by filtration, washed with 1% water in acetone that had been pre-cooled to −10° C. (28 ml) and then again with anhydrous acetone (28 ml). The crystals were then dried under vacuum at 50° C. […]
Pravastatin crystals were filtered and washed with 160 L acetone containing 2% water and cooled to between 2-5° C. Then the wet cake was washed once more with 160 L of pure acetone. The product was dried under vacuum by gradual heating to 60° C. The crystals were identified by X-ray diffraction as Form L. The water content was 16.8% and the acetone content was 0%. After prolonged drying the water content was reduced to 10.7%. A mixture of Form L and D was identified.

A short description of data set [2]: Solid-form stability on exposure at 100% relative humidity (X-ray diffraction). Format: physicochemical. As to conditions: one week. From the text:
The water uptake at 80% relative humidity after 1 week was up to about 15%. After exposure at 100% relative humidity, all the forms of pravastatin sodium transform to Form C with about […].
Pravastatin sodium was exposed at 100% relative humidity for one week.

The test system of another data set is serum cholesterol levels. The note with it: human subjects with normal hepatic function and moderate body weight; daily dosages of 10 mg or more; cited from earlier work.
The nature of data set [3]: Solid-form stability on storage at 40-80% relative humidity for two weeks (X-ray diffraction). Format: physicochemical. The note with it: two weeks at relative humidity of between 40-80%. As for the experimental part: Pravastatin sodium Form G may be prepared by storing pravastatin sodium Form F for 2 weeks at a relative humidity of about 40 to about 80%. […] The resulting solid was analyzed by X-ray diffraction without further treatment.

Consider `CC[C@H](C)C(=O)O[C@H]1C[C@H](O)C=C2C=C[C@H](C)[C@H](CC[C@@H](O)C[C@@H](O)CC(=O)O)[C@H]21` [Form H, pravastatin sodium], for which the “crystal form after drying under vacuum overnight” value in data set [1] is given as “converted to Form D”. Regarding `CC[C@H](C)C(=O)O[C@H]1C[C@H](O)C=C2C=C[C@H](C)C(CC[C@@H](O)C[C@@H](O)CC(=O)O)[C@H]21` (relative stereo) [Pravastatin sodium, [1S-[1α(β*,δ*)2α,6α,8β(R*),8aα]]-1,2,6,7,8,8a-hexahydro-β,δ,6-trihydroxy-2-methyl-8-(2-methyl-1-oxobutoxy)-1-naphthalene-heptanoic acid], the “crystal form after exposure at 100% relative humidity” value in data set [2] was “found to be Form C”. Besides, the “effect on serum cholesterol levels” value with serum cholesterol levels is given as “reduction in serum cholesterol levels”. Turning to `CC[C@H](C)C(=O)O[C@H]1C[C@H](O)C=C2C=C[C@H](C)[C@H](CC[C@@H](O)C[C@@H](O)CC(=O)O)[C@H]21` [Form F, pravastatin sodium], the “crystal form after storage at humidity” value in data set [3] is recorded as “Form G is obtained”. Take `CC[C@H](C)C(=O)O[C@H]1C[C@H](O)C=C2C=C[C@H](C)[C@H](CC[C@@H](O)C[C@@H](O)CC(=O)O)[C@H]21` [Form I, pravastatin sodium]: the “crystal form after drying under vacuum overnight” value in data set [1] is reported as “transformed to Form D”. Same read-out and setting: for `CC[C@H](C)C(=O)O[C@H]1C[C@H](O)C=C2C=C[C@H](C)[C@H](CC[C@@H](O)C[C@@H](O)CC(=O)O)[C@H]21` [Form J, pravastatin sodium] the value was “transformed to Form D”. For the compound `CC[C@H](C)C(=O)O[C@H]1C[C@H](O)C=C2C=C[C@H](C)C(CC[C@@H](O)C[C@@H](O)CC(=O)O)[C@H]21` (some centres unmarked) [Form L, pravastatin sodium], in data set [1] (dried under vacuum at 50° C. (Example 6)), the “crystal form after drying under vacuum at 50° C.” value is reported as “after drying the crystals were Form D”. Further, the “crystal form after further drying under vacuum” value in data set [1] (vacuum, gradual heating to 60° C., further drying to 2.5% water content (Example 23)) was “transformed to pure Form D”.
